{"source": "paper PMC12087874", "about": "“Biaryl Phosphates and Phosphonates as Selective Inhibitors of the Transcription Factor STAT4” (Angewandte Chemie (International Ed. in English), 2025)", "assay_type_in_all_cases": "binding", "key": {"[1]": {"molecular_target": "T1, STAT4 Lys580Ala (Homo sapiens, UniProt Q14765, K580A)", "T1 construct": "6xHis; made in house", "T1 sequence (Q14765 1-748 K580A)": "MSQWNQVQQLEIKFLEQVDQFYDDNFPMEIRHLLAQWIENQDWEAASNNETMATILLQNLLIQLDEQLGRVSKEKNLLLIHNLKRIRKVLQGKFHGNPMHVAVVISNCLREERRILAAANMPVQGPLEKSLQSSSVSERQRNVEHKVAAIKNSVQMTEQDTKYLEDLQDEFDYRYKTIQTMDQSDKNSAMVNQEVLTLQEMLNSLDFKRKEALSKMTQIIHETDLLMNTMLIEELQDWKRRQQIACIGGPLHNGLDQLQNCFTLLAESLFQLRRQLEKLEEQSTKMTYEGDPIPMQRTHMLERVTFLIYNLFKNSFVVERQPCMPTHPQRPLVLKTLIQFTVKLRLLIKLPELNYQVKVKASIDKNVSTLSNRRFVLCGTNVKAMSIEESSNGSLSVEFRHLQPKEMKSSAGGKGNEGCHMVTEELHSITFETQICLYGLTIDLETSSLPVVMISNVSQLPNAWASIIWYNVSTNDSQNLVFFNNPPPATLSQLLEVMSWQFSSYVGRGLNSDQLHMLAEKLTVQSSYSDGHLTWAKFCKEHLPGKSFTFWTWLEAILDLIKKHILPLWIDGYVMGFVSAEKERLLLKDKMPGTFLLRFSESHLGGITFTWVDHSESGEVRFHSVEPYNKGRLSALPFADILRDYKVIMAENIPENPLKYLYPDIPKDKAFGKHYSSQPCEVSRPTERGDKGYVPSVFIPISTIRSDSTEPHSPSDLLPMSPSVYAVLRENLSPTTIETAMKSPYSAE", "assay": "Isothermal titration calorimetry (ITC), STAT4 Lys580Ala", "conditions": "n = 4", "protocol": "(§1) Isothermal Titration Calorimetry\n(§2) Purification of 6xHis-tagged proteins for ITC experiments was carried out by affinity chromatography on His-Bind resin. The eluting fractions were analyzed by SDS -PAGE.\nProteins were dialyzed against ITC buffer (10 mM Tris pH 8.0, 50 mM NaCl) using dialysi s tubing with a 50 kDa cut-off. ITC experiments were performed using a VP-ITC Micro Calorimeter (MicroCal). 6m was dissolved as a 100 mM stock in DMSO and diluted 1/1000 in ITC buffer (Tris pH 8.0 and 50 mM NaCl), resulting in a final concentration of 100 µM. 8k was dissolved as a 5 mM stock in ITC buffer and diluted 1/25 in ITC buffer with DMSO, resulting in a final concentration of 200 µM 8k. DMSO was added to a final concentration of 2% (v/v). To avoid errors caused by the detection of dilution heat, 0.1 % (v/v) DMSO for 6m or 2% (v/v) DMSO for 8k experiments was added to the buffers containing the proteins and to the reference buffer. Proteins were degassed before the experiments using a ThermoVac sample degassing station. The following conditions were used for ITC experiments: 10 µM STAT4 protein for 6m or 20 µM STAT4 protein for 8k experiments, 100 µM 6m or 200 µM 8k, 28 injections with 10 µL single injection volume, 250 s initial delay, 500 s spacing between injections, 250 µcal/s reference power, 300 rpm stirring at 25 °C for 6m or 220 rpm stirring at 25 °C for 8k. […]"}, "[2]": {"molecular_target": "T2, wild‐type STAT4 (Homo sapiens, UniProt Q14765)", "T2 construct": "6xHis; made in house", "T2 sequence (Q14765 1-748)": "T1 sequence (Q14765 1-748 K580A) with A580K", "assay": "Isothermal titration calorimetry (ITC), wild-type STAT4", "conditions": "for Kd: ITC, 25 °C, one-site binding model, read-out: K d (ITC), wild-type STAT4", "protocol": "as §1, §2\nProteins were dialyzed against ITC buffer (10 mM Tris pH 8.0, 50 mM NaCl) using dialysi s tubing with a 50 kDa cut-off. ITC experiments were performed using a VP-ITC Micro Calorimeter (MicroCal). 6m was dissolved as a 100 mM stock in DMSO and diluted 1/1000 in ITC buffer (Tris pH 8.0 and 50 mM NaCl), resulting in a final concentration of 100 µM. 8k was dissolved as a 5 mM stock in ITC buffer and diluted 1/25 in ITC buffer with DMSO, resulting in a final concentration of 200 µM 8k. DMSO was added to a final concentration of 2% (v/v). To avoid errors caused by the detection of dilution heat, 0.1 % (v/v) DMSO for 6m or 2% (v/v) DMSO for 8k experiments was added to the buffers containing the proteins and to the reference buffer. Proteins were degassed before the experiments using a ThermoVac sample degassing station. The following conditions were used for ITC experiments: 10 µM STAT4 protein for 6m or 20 µM STAT4 protein for 8k experiments, 100 µM 6m or 200 µM 8k, 28 injections with 10 µL single injection volume, 250 s initial delay, 500 s spacing between injections, 250 µcal/s reference power, 300 rpm stirring at 25 °C for 6m or 220 rpm stirring at 25 °C for 8k. Data analysis was performed using NITPIC[1, 5] and SEDPHAT,[6] applying a low-noise integration approach. Data were fitted using a one-site binding model. Figures were generated using GUSSI.[7] Experiments were carried out in quadruplicate for 6m and triplicate"}, "[3]": {"molecular_target": "T3, STAT4 Arg598Ala (Homo sapiens, UniProt Q14765, R598A)", "T3 construct": "6xHis; made in house", "T3 sequence (Q14765 1-748 R598A)": "T1 sequence (Q14765 1-748 K580A) with A580K, R598A", "assay": "Isothermal titration calorimetry (ITC), STAT4 Arg598Ala", "conditions": "n = 4"}}, "note": "Numbering of substitutions follows the chain as printed.", "data": [{"smiles": "O=P(O)(O)Oc1ccc(-c2ccc3ccccc3c2)cc1F", "note": "[Compound 6m]", "values": [{"measurement": "binding to STAT4 point mutant Lys580Ala (ITC)", "setting": "[1]", "value": "too weak for reliable quantification"}, {"measurement": "Kd", "setting": "[2]", "value": "1.3 ± 0.3", "unit": "µM"}, {"measurement": "binding to STAT4 point mutant Arg598Ala (ITC)", "setting": "[3]", "value": "no heat release"}]}, {"smiles": "Cc1cc(-c2ccc(C(F)(F)P(=O)(O)O)c(F)c2)cs1", "note": "[Compound 8k]", "values": [{"measurement": "Kd", "setting": "[2]", "value": "7.1 ± 1.1", "unit": "µM"}, {"measurement": "dissociation constant (ITC) relative to IC50 value in FP assays", "setting": "[2]; Kd (ITC) higher than IC50 (FP), STAT4", "value": 2, "unit": "fold"}]}]}
